In PMC11902257, “Antiprotozoal Aminosteroids from Pachysandra terminalis” (Molecules, 2025):
Several values for one entry are separate records, joined by “and”; a condition that tells them apart may be missing. Equal entries are not always repeated. Where two headings read alike, the source gives them in different places.

Tests used:
Format in all cases: cell-based
[1] = tested on: Plasmodium falciparum (Pf) NF54 strain; assay: in vitro antiplasmodial assay, 3H-hypoxanthine incorporation, erythrocytic stages; conditions: for IC50: Plasmodium falciparum; for SI (Pf): Selectivity index IC50(Cytotox)/IC50(Pf)
Description: Plasmodium falciparum (Pf): Tests were performed against erythrocytic stages of the drug-sensitive NF54 strain. The NF54 strain was obtained from F. Hoffmann-La Roche Limited (Basel, Switzerland). The strain NF54 was originally derived from a patient living near Schiphol Airport, Amsterdam, who had never left the Netherlands. The assay was performed using a 3H-hypoxanthine incorporation assay. Serial compound dilutions were prepared with the medium as indicated above and then added in 96-well plates to parasite cultures incubated in the medium previously described, consisting of RPMI 1640 supplemented with 0.5% ALBUMAX® II, 25 mM Hepes, 25 mM NaHCO3 (pH 7.3), 0.36 mM hypoxanthine, and 100 μg/mL neomycin. The plates were incubated in a humidified atmosphere at 37 °C, 4% CO2, 3% O2, and 93% N2. After 48 h, 0.25 μCi of 3H-hypoxanthine was added to each well. Incubation was continued under identical conditions for a further 24 h. The plates were then harvested using a Betaplate™ cell harvester (Wallac, Zurich, Switzerland). The red blood cells were transferred onto a glass fiber filter and washed with distilled H2O. After drying, filters were inserted into a plastic foil with 10 mL of scintillation fluid and counted with a Betaplate™ liquid scintillation counter (Wallac, Zurich, Switzerland). Data were treated according to [44] (see below). The positive control was chloroquine.
(§1) Bioassay data and statistical methods: In all cases, the readout data were plotted in Microsoft Excel. Half-maximal inhibitory concentrations (IC50 values) were calculated from the sigmoidal dose-response curves by linear regression. Two independent replicates of the assay were performed in all cases, and the results were expressed as arithmetic mean ± deviation from the mean.

[2] = cytotoxicity against L-6 rat skeletal myoblasts, resazurin
Description: Cytotoxicity against L-6 rat skeletal myoblasts: The L6 rat skeletal myoblast cell line used for cytotoxicity tests was obtained from the American Type Culture Collection (ATCC, Manassas, VA, USA) as ATCC-CRL-1458 [50]. The cells were cultivated in RPMI 1640 medium supplemented with 1% L-glutamine (200mM) and 10% fetal bovine serum. Cultures were maintained at 37 °C in an atmosphere of 5% CO2. Assays were performed in 96-well plates, each well containing RPMI 1640 medium supplemented with 1% L-glutamine (200 mM), 10% fetal bovine serum, and 2 × 10^3 L-6 cells/well. Plates were incubated at 37 °C under a 5% CO2 atmosphere for 24 h. Compounds were dissolved in DMSO (10 mg/mL). After 24 h, serial drug dilutions of eleven 3-fold dilution steps covering a range from 100 to 0.002 μg/mL were prepared, and the plates were incubated at 37 °C under 5% CO2 for 70 h. After 70 h incubation, 10 μL of resazurin solution (12.5 mg resazurin in 100 mL 1xPBS) was added per well, and plates were incubated for an additional 2 h. After that, the plates were read with a Spectramax Gemini EM microplate fluorometer (Molecular Devices, San Jose, CA, USA) using an excitation wavelength of 536 nm and an emission wavelength of 588 nm. Data were treated according to [44] (see below). Podophyllotoxin served as a positive control.
as §1

[3] = tested on: Trypanosoma brucei rhodesiense (Tbr) STIB900 strain; assay: in vitro antitrypanosomal assay, bloodstream forms, resazurin; conditions: for SI(Tbr): Selectivity index IC50(Cytotox)/IC50(Tbr); for IC50: Trypanosoma brucei
Description: Trypanosoma brucei rhodesiense (Tbr): The STIB900 strain is a derivative of the STIB704 strain isolated from a patient in Ifakara, Tanzania, in 1982 [43]. The bloodstream forms were cultivated as axenic culture in HMI-9 medium, supplemented with 15% heat-inactivated horse serum. Cultures were maintained at 37 °C in an atmosphere of 5% CO2. Test compounds were dissolved in DMSO (10 mg/mL), and serial drug dilutions of eleven 3-fold dilution steps covering a range from 100 to 0.002 μg/mL were prepared in a 96-well plate. Bloodstream-form of T. b rhodesiense strain STIB900 (2 × 10^3/well) was added into the wells. After 68 h incubation, 10 μL of resazurin solution (12.5 mg resazurin in 100 mL 1xPBS) was added per well, and plates were incubated for an additional 4 h. Subsequently, the plates were read with a Spectramax Gemini EM microplate fluorometer (Molecular Devices, San Jose, CA, USA) using an excitation wavelength of 536 nm and an emission wavelength of 588 nm. Data were treated according to [44] (see below). Melarsoprol was used as a positive control.
as §1

[4] = NF54, pure compounds, tested as mono- or bis-trifluoroacetates where marked, read-out: IC50 Pf (converted)
[5] = NF54, values in brackets, calculated with the molecular masses of the corresponding salts, read-out: IC50 Pf (converted)
[6] = pure compounds, tested as mono- or bis-trifluoroacetates where marked, read-out: IC50 Tbr (converted)
[7] = values in brackets, calculated with the molecular masses of the corresponding salts, read-out: IC50 Tbr (converted)
[8] = NF54, read-out: IC50 Pf [µg/mL]
[9] = pure compounds, tested as mono- or bis-trifluoroacetates where marked

Row | SMILES | IC50 [1, 4] [µg/mL] | IC50 [1, 5] [µM] | SI (Pf) ([1]; pure compounds) | IC50 at 70 h [2] | SI(Tbr) ([3]; pure compounds) | IC50 [3, 6] [µg/mL] | IC50 [3, 7] [µM] | further results
1 | CN[C@@H](C)[C@H]1CC[C@H]2[C@@H]3CC=C4C[C@@H](N(C)C)CC[C@]4(C)[C@H]3CC[C@]12C [Compound 2, 5,6-Dehydro-desacyl-epipachysamine A] | 0.898 ± 0.002 | 1.53 | 21 | 19 µg/mL and 33 µM | 10 | 1.9 ± 0.2 | 3.2 | –
2 | CC1=CC(=O)CC(C)(C)C1CCC(C)N(C)C (stereo not shown) [Compound 1] | 0.93 ± 0.07 | 3.91 | 51 | 47 µg/mL and 198 µM | 8 | 6.2 ± 0.9 | 26.2 | –
3 | C[C@@H]([C@H]1CC[C@H]2[C@@H]3CC[C@H]4C[C@@H](N(C)C)CC[C@]4(C)[C@H]3CC[C@]12C)N(C)C [Compound 12, N-methyl-desacyl-epipachysamine A] | 2.5 ± 0.3 | 4.1 | 3 | 7 µg/mL and 11 µM | 3 | 2.3 ± 0.2 | 3.9 | –
4 | C[C@@H]([C@H]1CC[C@H]2[C@@H]3CC[C@H]4C[C@@H](NC(=O)c5cccnc5)CC[C@]4(C)[C@H]3CC[C@]12C)N(C)C [Compound 4, Epipachysamine B] | 2.3 ± 0.2 | 3.4 | 2 | 5.2 µg/mL and 7.7 µM | 3 | 1.6 ± 0.5 | 2.4 | –
5 | C[C@@H]([C@H]1CC[C@H]2[C@@H]3CC=C4C[C@@H](N(C)C)CC[C@]4(C)[C@H]3CC[C@]12C)N(C)C [Compound 13, Sarcodinine] | 4.6 ± 0.7 | 7.7 | 2 | 11 µg/mL and 18 µM | 4 | 2.6 ± 0.4 | 4.3 | –
6 | C[C@@H]([C@H]1CC[C@H]2[C@@H]3CC[C@H]4[C@@H](O)[C@@H](NC(=O)c5ccccc5)[C@@H](O)C[C@]4(C)[C@H]3CC[C@]12C)N(C)C [Compound 18, 2β,3β,4β-Diapachysamine K] | 47 ± 7 | 80 | 0.4 | 17 µg/mL and 28 µM | 3 | 5.9 ± 0.4 | 9.9 | –
7 | CN[C@@H](C)[C@H]1CC[C@H]2[C@@H]3CC[C@H]4C[C@@H](N(C)C)CC[C@]4(C)[C@H]3CC[C@]12C [Compound 3, Desacyl-epipachysamine A] | 0.85 ± 0.03 | 1.44 | 21 | 18 µg/mL and 30 µM | – | 2 ± 0.2 | 3.5 | –
8 | CCN(CC)CCCC(C)Nc1ccnc2cc(Cl)ccc12 (stereo not shown) [Chloroquine, reference compound] | – | – | – | – | – | – | – | IC50 ([1]; NF54, read-out: IC50 Pf): 0.002 µg/mL; IC50 [1, 8]: 0.002 µg/mL
9 | CN[C@@H](C)[C@H]1CC[C@H]2[C@@H]3CC[C@H]4C[C@@H]([N+](C)(C)CCl)CC[C@]4(C)[C@H]3CC[C@]12C [Compound 6, N3-chloromethyl-desacyl-epipachysamine A] | 0.25 ± 0.03 | 0.39 | 346 | 87 µg/mL and 136 µM | 74 | 1.2 ± 0.4 | 1.9 | –
10 | Nc1nc(N)nc(Nc2ccc([As]3SCC(CO)S3)cc2)n1 (stereo not shown) [Melarsoprol, reference compound] | – | – | – | – | – | – | – | IC50 ([3]; read-out: IC50 Tbr): 0.007 ± 0.002 µg/mL; IC50 ([3]; read-out: IC50 Tbr [µg/mL]): 0.007 ± 0.002 µg/mL
11 | CC(=O)[C@H]1CC[C@H]2[C@@H]3CCC4C[C@@H](N(C)C)CC[C@]4(C)[C@H]3CC[C@]12C (stereo partly drawn) [Compound 9, 3β-Dimethylamino-pregnane-20-one] | – | – | 0.8 | – | 3 | 2.21 ± 0.06 | 4.8 | IC50 ([1]; NF54, read-out: IC50 Pf (µM)): 18 µM; IC50 [1, 8]: 8 ± 2 µg/mL; IC50 at 70 h ([2]; L6 cells, values in brackets, calculated with the molecular masses of the corresponding salts, read-out: IC50 Cytotox (converted)): 14 µM; IC50 at 70 h ([2]; pure compounds, L6 cells, tested as mono- or bis-trifluoroacetates where marked, read-out: IC50 Cytotox (converted)): 6 ± 2 µg/mL
12 | C[C@@H]([C@H]1CC[C@H]2[C@@H]3CC=C4C[C@@H](NC(=O)c5cccnc5)CC[C@]4(C)[C@H]3CC[C@]12C)N(C)C [Compound 5, Pactermine A] | 0.91 ± 0.02 | 1.34 | 6 | 5.8 µg/mL and 8.6 µM | 3 | 1.93 ± 0.06 | 2.85 | –
13 | C[C@@H]([C@H]1CC[C@H]2[C@@H]3CC[C@H]4[C@H](O)[C@@H](O)CC[C@]4(C)[C@H]3CC[C@]12C)N(C)C [Compound 11, Terminaline] | 3 ± 1 | 7 | 8 | 28 µg/mL and 60 µM | 5 | 5.9 ± 0.3 | 12.4 | –
14 | CN[C@@H]1CC[C@@]2(C)[C@@H](CC[C@@H]3[C@@H]2CC[C@]2(C)[C@@H]([C@H](C)N(C)C)CC[C@@H]32)C1 [Compound 8, Pachysamine A] | 1.82 ± 0.06 | 3.09 | 6 | 10.4 µg/mL and 17.7 µM | 13 | 0.8 ± 0.1 | 1.3 | –
15 | COc1cc([C@@H]2c3cc4c(cc3[C@H](O)[C@H]3COC(=O)[C@H]23)OCO4)cc(OC)c1OC [Podophyllotoxin, reference compound] | – | – | – | – | – | – | – | IC50 at 70 h ([2]; crude extracts and acid/base fractions, L6 cells, mean of two determinations ± deviation, read-out: IC50 Cytotox (converted)): 0.009 ± 0.001 µg/mL
16 | CC(C)=CC(=O)N[C@@H]1[C@H](O)[C@@H]2CC[C@@H]3[C@H](CC[C@]4(C)[C@@H]([C@H](C)N(C)C)CC[C@@H]34)[C@@]2(C)C[C@@H]1O [Compound 16, 4β-Hydroxy-hookerianamide N] | 6.1 ± 0.5 | 10.6 | 7 | 45 µg/mL and 79 µM | 6 | 8.1 ± 0.6 | 14.1 | –
17 | CC(=O)N(C)[C@@H](C)[C@H]1CC[C@H]2[C@@H]3CC[C@H]4C[C@@H](N(C)C)CC[C@]4(C)[C@H]3CC[C@]12C [Compound 14, Epipachysamine A] | 18 ± 1 | 36 | 0.6 | 12 µg/mL and 23 µM | 5 | 2.14 ± 0.05 | 4.14 | –
18 | C[C@@H]([C@H]1CC[C@H]2[C@@H]3CC[C@H]4C[C@]5(CC[C@]4(C)[C@H]3CC[C@]12C)c1ccccc1C(=O)N5C)N(C)C [Compound 15, Spiropachysine] | 3 ± 1 | 6 | 2 | 7.3 µg/mL and 12.7 µM | 3 | 2.21 ± 0.04 | 3.83 | –
19 | O=C(O)C(F)(F)F [Trifluoroacetate, reference compound] | – | – | – | – | – | – | – | IC50 Pf [1, 9]: >100 µg/mL; IC50 Tbr [3, 9]: >100 µg/mL
